Test results as given in patent US20040175782A1, “Biotransformation of compounds using non-prokaryotic microalgae” (TETHYS RESEARCH LLC, priority 2003, published 2004).

Key:
[1] = tested on: Chlamydomonas; assay: growth (cell counts) of microalgae in the presence of precursor compound; assay type: cell-based, Chlamydomonas reinhardtii; conditions: 100 μg/ml, cell counts on days 0, 2, 4 and 7, relative to growth controls
Procedure: (§1) Three 15 ml cultures of each of the microalgae listed in Table III above were grown in 30 ml flasks. Growth control cultures contained algae and medium only. Growth control cultures in the presence of solvent contained algae, medium, and 0.06 ml of methanol, the solvent chosen for the precursor compound. Experimental cultures contained algae, medium, and 0.06 ml of a 25 mg/ml solution of (S)-(−)-3-(Benzyloxycarbonyl)-4-oxazolidinecarboxylic acid (precursor compound) dissolved in methanol, yielding a final concentration of 100 μg/ml. Cell counts were performed using a haemocytometer on days 0, 2, 4 and 7.

[2] = tested on: Cryptocrysis rubens; assay: final biotransformation culture, 7 days in the presence of precursor; assay type: cell-based; conditions: 200 μg/ml precursor, starting cell concentration not determined
Procedure: (§2) Table V below lists each microalgae in the final panel, its starting cell concentration, the concentration of precursor compound in the growth medium, the starting and final cell count, and the method of separation of the resulting biomass from the culture supernatant. The final panel of algal strains were grown for 7 days under the conditions listed in Table III above in the presence of the precursor compound prior to separation of the resulting biomass from the culture supernatant.

[3] = tested on: Moromastix sp.; assay: as above; assay type: cell-based; conditions: 200 μg/ml precursor, starting cell concentration 6.16 × 10^5
Procedure: as §2

[4] = tested on: Chloromonas rosae; assay: as above; assay type: cell-based; conditions: 100 μg/ml precursor, starting cell concentration 1.75 × 10^5
Procedure: as §2

[5] = tested on: Phaeodactylum; assay: growth (cell counts) of microalgae in the presence of precursor compound; assay type: cell-based, Phaeodactylum tricornutum; conditions: 100 μg/ml, cell counts on days 0, 2, 4 and 7, relative to growth controls
Procedure: as §1
as §1, with “VIII” for “III”, “Precursor 2.” for “the precursor compound.”, “tert-butyl[S-(R*-R*)]-(−)-(1-oxiranyl-2-phenylethylcarbamate)” for “(S)-(−)-3-(Benzyloxycarbonyl)-4-oxazolidinecarboxylic acid”, “concentration in the culture medium” for “concentration”

[6] = tested on: Chlorella; assay: as above; assay type: cell-based, Chlorella minutisima; conditions: 100 μg/ml, cell counts on days 0, 2, 4 and 7, relative to growth controls
Procedure: as §1
as §1, with “VIII” for “III”, “Precursor 2.” for “the precursor compound.”, “tert-butyl[S-(R*-R*)]-(−)-(1-oxiranyl-2-phenylethylcarbamate)” for “(S)-(−)-3-(Benzyloxycarbonyl)-4-oxazolidinecarboxylic acid”, “concentration in the culture medium” for “concentration”

[7] = tested on: Botrydium; assay: as above; assay type: cell-based; conditions: 100 μg/ml, cell counts on days 0, 2, 4 and 7, relative to growth controls
Procedure: as §1

[8] = tested on: Platymonas; assay: as above; assay type: cell-based, Platymonas sp.; conditions: 100 μg/ml, cell counts on days 0, 2, 4 and 7, relative to growth controls
Procedure: as §1

[9] = tested on: Phaeodactylum tricornutum; assay: final biotransformation culture, 7 days in the presence of precursor; assay type: cell-based; conditions: 200 μg/ml precursor, starting cell concentration 1.18 × 10^6
Procedure: (§3) Table V below lists each microalgae in the final panel, its starting cell concentration, the concentration of precursor compound in the growth medium, the starting and final cell count, and the method of separation of the resulting biomass from the culture supernatant. The final panel of algal strains were grown for 7 days under the conditions listed in Table III above in the presence of the precursor compound prior to separation of the resulting biomass from the culture supernatant. Cell counts were not determined in every case for the strains listed in Table V. Table X below lists each microalgae in the final panel, its starting cell concentration, the concentration of precursor compound in the growth medium, the starting and final cell count, and the method of separation of the resulting biomass from the culture supernatant. The final panel of algal strains was grown for 7 days under the conditions listed in Table VIII above in the presence of Precursor 2 prior to separation of the resulting biomass from the culture supernatant.

[10] = tested on: Chlorella minutisima; assay: as above; assay type: cell-based; conditions: 100 μg/ml precursor, starting cell concentration 1.52 × 10^6
Procedure: as §3

[11] = tested on: Olithodiscus sp.; assay: as above; assay type: cell-based; conditions: 50 μg/ml precursor, starting cell concentration 1.09 × 10^6
Procedure: as §3

[12] = tested on: Euglena gracilis; assay: as above; assay type: cell-based; conditions: 100 μg/ml precursor, starting cell concentration not determined
Procedure: as §3

[13] = tested on: Chlamydomonas reinhardtii; assay: as above; assay type: cell-based; conditions: 200 μg/ml precursor, starting cell concentration 2.2 × 10^7
Procedure: as §3

[14] = tested on: Cryptomonas ovata; assay: as above; assay type: cell-based; conditions: 200 μg/ml precursor, starting cell concentration not determined
Procedure: as §3

[15] = tested on: Scenedesmus obliquus; assay: as above; assay type: cell-based; conditions: 200 μg/ml precursor, starting cell concentration 6.38 × 10^6
Procedure: as §3

O=C(O)[C@@H]1COCN1C(=O)OCc1ccccc1 [precursor compound, (S)-(−)-3-(Benzyloxycarbonyl)-4-oxazolidinecarboxylic acid]
effect on growth of Chlamydomonas [1]: moderate, but not severe decreases in growth relative to the growth controls | Final Cell Concentration [2]: 3.09 × 10^6 | Final Cell Concentration [3]: 7.4 × 10^5 | Final Cell Concentration [4]: 1.13 × 10^6 | effect on growth of Phaeodactylum [5]: moderate, but not severe decreases in growth relative to the growth controls | effect on growth of Chlorella [6]: increased growth relative to the growth controls | effect on growth of Chlorella ([6]; listed as Precursor 2 used in Example 1): negatively affected | effect on growth of Botrydium [7]: increased growth relative to the growth controls | effect on growth of Platymonas [8]: causing cell death | Final Cell Concentration [9]: 4.08 × 10^6 | Final Cell Concentration [10]: 1.08 × 10^7 | Final Cell Concentration [11]: 1.3 × 10^6 | Final Cell Concentration [12]: 6.6 × 10^5 | Final Cell Concentration [13]: 1.58 × 10^9 | Final Cell Concentration [14]: 1.3 × 10^5 | Final Cell Concentration [15]: 2.12 × 10^7
